Assay [1] has as its target hGYS1 enzyme (recombinant hGYS1/GN1 protein) (Homo sapiens (Human), UniProt P13807). The assay can be described thus: GYS1 coupled enzyme assay (PK/LDH). The format is biochemical. The following applies: hGYS1/GN1 50 nM, UDP-Glucose 0.8 mM, G6P 1 mM; geometric mean of at least 2 runs.
Assay [2] addresses hGYS2 enzyme (recombinant hGYS2/GN1 protein) (Homo sapiens (Human), UniProt P54840). The assay can be described thus: GYS2 coupled enzyme assay (PK/LDH). It is filed as biochemical. The following applies: geometric mean of at least 2 assay runs on separate days, read-out: Avg_IC50. The source says: The GYS2 coupled enzyme assay is a kinetic biochemical assay that indirectly quantifies the rate of glycogen synthesis by coupling the conversion of GYS2 substrate UDP-glucose into UDP with downstream enzymatic reactions. UDP is released from UDP-glucose as glucose monomers are linked into the growing glycogen strand by GYS2. The coupled assay then proceeds with pyruvate kinase utilizing UDP and phospho(enol)pyruvate (PEP) to form pyruvate. Lactate dehydrogenase then converts pyruvate and NADH into lactate and NAD+. Oxidation of NADH to NAD+ can be measured continuously with a plate reader by quantifying the decrease in NADH absorbance at 340 nm over time.
Compounds that inhibit the hGYS2 enzyme and, subsequently, the downstream conversion of NADH to NAD+, were tested using assay ready plates (black, clear bottom 384 well plates) in a final DMSO reaction volume of 2.5% DMSO. The Assay Buffer contained 50 mM Tris pH 7.5, 2 mM MgCl2, and 100 mM KCl. Fresh stocks of BSA at a final concentration of 0.02% and TCEP 1 mM were added before splitting buffer into hGYS2 buffer and substrate buffer. To the hGYS2 buffer, rabbit liver glycogen was added at a final concentration of 0.2% glycogen. Glucose-6-Phosphate was added at 2 mM, recombinant hGYS2/GN1 protein was added at 200 nM to the substrate buffer, phosphoenolpyruvate (PEP) was added at 2 mM, UDP-Glucose was added at 2 mM, NADH was added at 0.6 mM, and Pyruvate Kinase/Lactate Dehydrogenase was added at 20 units/mL. The reaction was initiated by mixing hGYS2 buffer and substrate buffer at a 1:1 ratio. Both buffers were plated using a liquid dispensing device with hGYS2 buffer plated first followed by the substrate buffer. Plates were spun briefly to eliminate air bubbles and are immediately read in continuous mode at an absorbance of 340 nm, for 10 time points in one-minute increments, for a total of 10 minutes. The slope from these 10 time points was normalized to the positive and negative control wells. The duplicate % inhibition values are then averaged and fit to a Hill equation for dose response according to the Levenberg-Marquardt algorithm with the Hill equation maximum set to 100 and the minimum set to 0.
The results are shown in Table 4 below, which reports the IC50 of each compound. Unless otherwise specified, IC50 values are reported as the geometric mean of at least 2 assay runs on separate days. As shown in the table below, the compounds of the present invention are not potent inhibitors of human GYS2. Unless otherwise specified, IC50 values are reported as the geometric mean of at least two assay runs on separate days. Each run represents the average of a technical replicate, where each compound was assayed twice in the same plate. A superscript “#” symbol in Table 4 indicates results from a single assay run.

Molecules are shown by their SMILES. Some results are limits rather than exact numbers.

hGYS1 enzyme (recombinant hGYS1/GN1 protein), sequence (P13807 whole entry): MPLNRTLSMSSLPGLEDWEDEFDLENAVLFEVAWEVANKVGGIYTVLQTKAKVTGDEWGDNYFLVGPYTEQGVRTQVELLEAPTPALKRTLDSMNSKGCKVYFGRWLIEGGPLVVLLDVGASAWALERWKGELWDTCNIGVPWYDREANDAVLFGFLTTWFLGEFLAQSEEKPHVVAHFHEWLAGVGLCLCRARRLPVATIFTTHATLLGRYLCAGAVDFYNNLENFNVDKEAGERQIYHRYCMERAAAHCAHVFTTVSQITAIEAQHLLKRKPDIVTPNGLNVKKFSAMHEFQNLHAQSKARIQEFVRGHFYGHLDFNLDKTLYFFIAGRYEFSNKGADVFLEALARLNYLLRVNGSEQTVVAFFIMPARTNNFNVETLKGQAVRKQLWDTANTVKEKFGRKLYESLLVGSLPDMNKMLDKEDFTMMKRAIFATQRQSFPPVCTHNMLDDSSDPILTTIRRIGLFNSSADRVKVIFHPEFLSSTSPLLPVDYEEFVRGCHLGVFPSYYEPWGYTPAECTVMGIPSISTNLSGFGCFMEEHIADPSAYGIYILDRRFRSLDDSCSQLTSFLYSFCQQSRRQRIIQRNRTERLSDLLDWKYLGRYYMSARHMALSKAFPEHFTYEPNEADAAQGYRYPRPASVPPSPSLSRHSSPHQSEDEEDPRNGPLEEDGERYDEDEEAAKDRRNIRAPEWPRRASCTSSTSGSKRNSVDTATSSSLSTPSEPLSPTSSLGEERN
hGYS1 enzyme (recombinant hGYS1/GN1 protein), sequence (P46976 whole entry partner): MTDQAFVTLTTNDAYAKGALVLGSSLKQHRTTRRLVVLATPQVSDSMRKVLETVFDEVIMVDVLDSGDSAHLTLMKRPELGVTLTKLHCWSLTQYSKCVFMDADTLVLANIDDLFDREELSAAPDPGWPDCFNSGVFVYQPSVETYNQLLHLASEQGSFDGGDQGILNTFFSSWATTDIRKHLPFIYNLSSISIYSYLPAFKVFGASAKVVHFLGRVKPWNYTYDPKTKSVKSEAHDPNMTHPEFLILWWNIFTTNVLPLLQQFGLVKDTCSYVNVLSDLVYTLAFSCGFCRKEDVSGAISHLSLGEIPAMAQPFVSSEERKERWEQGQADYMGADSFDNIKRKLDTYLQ
hGYS2 enzyme (recombinant hGYS2/GN1 protein), sequence (P54840 whole entry): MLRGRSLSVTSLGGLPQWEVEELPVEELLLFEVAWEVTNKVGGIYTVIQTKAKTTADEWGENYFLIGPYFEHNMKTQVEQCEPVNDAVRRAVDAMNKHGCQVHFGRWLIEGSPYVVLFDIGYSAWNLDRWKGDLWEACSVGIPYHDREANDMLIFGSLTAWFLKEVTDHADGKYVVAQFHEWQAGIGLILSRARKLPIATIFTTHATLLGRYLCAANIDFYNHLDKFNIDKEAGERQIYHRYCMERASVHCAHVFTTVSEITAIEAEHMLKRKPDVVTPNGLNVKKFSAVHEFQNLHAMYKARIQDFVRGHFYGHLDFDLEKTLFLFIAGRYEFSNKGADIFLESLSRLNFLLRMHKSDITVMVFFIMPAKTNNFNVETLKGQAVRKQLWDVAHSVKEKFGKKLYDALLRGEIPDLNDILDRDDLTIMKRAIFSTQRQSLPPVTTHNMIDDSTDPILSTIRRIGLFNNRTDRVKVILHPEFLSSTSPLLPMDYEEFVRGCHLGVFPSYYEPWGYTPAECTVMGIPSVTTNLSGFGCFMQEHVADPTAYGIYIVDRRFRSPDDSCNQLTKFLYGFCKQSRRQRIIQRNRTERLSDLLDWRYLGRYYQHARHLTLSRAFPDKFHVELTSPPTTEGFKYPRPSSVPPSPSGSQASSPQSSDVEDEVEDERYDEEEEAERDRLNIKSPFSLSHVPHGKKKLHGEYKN
hGYS2 enzyme (recombinant hGYS2/GN1 protein), sequence (P46976 whole entry partner): as the sequence (P46976 whole entry partner) above

For the compound `CC(C)c1ccc([C@@H](NC(=O)[C@@H]2C[C@@H](F)CN2C(=O)Cc2cnnn2C)c2ccccc2)cc1` (stereo in doubt) [Compound 228, (2RS,4R)-4-fluoro-1-[2-(1-methyl-1H-1,2,3-triazol-5-yl)acetyl]-N-[(S)-phenyl[4-(propan-2-yl)phenyl]methyl]pyrrolidine-2-carboxamide], the IC50 was 77 nM in assay [1] and more than 100000 nM in assay [2].

On to `CC(C)c1ccc([C@@H](NC(=O)[C@@H]2C[C@@H](F)CN2C(=O)Cc2cn(C)nn2)c2ccccc2)cc1` (stereo in doubt) [Compound 229, (2RS,4R)-4-fluoro-1-[2-(1-methyl-1H-1,2,3-triazol-4-yl)acetyl]-N-[(S)-phenyl[4-(propan-2-yl)phenyl]methyl]pyrrolidine-2-carboxamide], for which the IC50 is 25 nM in assay [1] and more than 100000 nM in assay [2].

In the case of `CC(=O)N1C[C@H]2COC[C@@]2(C(=O)N2C[C@H](F)C[C@H]2C(=O)N[C@@H](c2ccccc2)c2ccc(C(C)C)cc2)C1` [Compound 3, (2S,4R)-1-[(3aS,6aS)-5-acetyl-hexahydro-1H-furo[3,4-c]pyrrole-3a-carbonyl]-4-fluoro-N-[(S)-phenyl[4-(propan-2-yl)phenyl]methyl]pyrrolidine-2-carboxamide], the IC50 in assay [1] was 168 nM; in assay [2] it was more than 100000 nM.

Turning to `CC(=O)N1CC2(CCCC2CC(=O)N2C[C@H](F)C[C@H]2C(=O)N[C@@H](c2ccccc2)c2ccc(C(C)C)cc2)C1` (stereo partly drawn) [Compound 7, (2S,4R)-1-(2-{2-acetyl-2-azaspiro[3.4]octan-5-yl}acetyl)-4-fluoro-N-[(S)-phenyl[4-(propan-2-yl)phenyl]methyl]pyrrolidine-2-carboxamide], the IC50 in assay [1] is 113 nM; in assay [2], more than 100000 nM.

As for `CC(C)c1ccc([C@@H](NC(=O)[C@@H]2C[C@@H](F)CN2C(=O)[C@@H]2CNC(=O)O2)c2ccccc2)cc1` [Compound 8, (2S,4R)-4-fluoro-1-[(5S)-2-oxo-1,3-oxazolidine-5-carbonyl]-N-[(S)-phenyl[4-(propan-2-yl)phenyl]methyl]pyrrolidine-2-carboxamide], the IC50 in assay [1] was 42 nM; in assay [2], more than 100000 nM.

As for `CC(C)c1ccc([C@@H](NC(=O)[C@@H]2C[C@@H](F)CN2C(=O)Cn2cnnn2)c2ccccc2)cc1` [Compound 9, (2S,4R)-4-fluoro-N-[(S)-phenyl[4-(propan-2-yl)phenyl]methyl]-1-[2-(1H-1,2,3-tetrazol-1-yl)acetyl]pyrrolidine-2-carboxamide], the IC50 in assay [1] is 59 nM; in assay [2], more than 100000 nM.

On to `Cc1nnc(CC(=O)N2C[C@H](F)C[C@H]2C(=O)N[C@@H](c2ccccc2)c2ccc(C(C)C)cc2)o1` [Compound 10, (2S,4R)-4-fluoro-1-[2-(5-methyl-1,3,4-oxadiazol-2-yl)acetyl]-N-[(S)-phenyl[4-(propan-2-yl)phenyl]methyl]pyrrolidine-2-carboxamide], for which the IC50 in assay [1] is 50 nM; in assay [2] it was more than 100000 nM.

As to `CC(C)c1ccc([C@@H](NC(=O)[C@@H]2C[C@@H](F)CN2C(=O)CCn2ccnn2)c2ccccc2)cc1` [Compound 11, (2S,4R)-4-fluoro-N-[(S)-phenyl[4-(propan-2-yl)phenyl]methyl]-1-[3-(1H-1,2,3-triazol-1-yl)propanoyl]pyrrolidine-2-carboxamide], the IC50 in assay [1] is 91 nM; in assay [2], more than 100000 nM.

As to `CC(C)c1ccc([C@@H](NC(=O)[C@@H]2C[C@@H](F)CN2C(=O)CCC#N)c2ccccc2)cc1` [Compound 13, (2S,4R)-1-(3-cyanopropanoyl)-4-fluoro-N-[(S)-phenyl[4-(propan-2-yl)phenyl]methyl]pyrrolidine-2-carboxamide], the IC50 in assay [1] was 147 nM; in assay [2] it was more than 100000 nM.

Take `CC(C)c1ccc([C@@H](NC(=O)[C@@H]2C[C@@H](F)CN2C(=O)CS(C)(=O)=O)c2ccccc2)cc1` [Compound 14, (2S,4R)-4-fluoro-1-(2-methanesulfonylacetyl)-N-[(S)-phenyl[4-(propan-2-yl)phenyl]methyl]pyrrolidine-2-carboxamide]: the IC50 in assay [1] was 129 nM; in assay [2] it was more than 100000 nM.

For the compound `CC(C)c1ccc([C@@H](NC(=O)[C@@H]2C[C@@H](F)CN2C(=O)Cc2cscn2)c2ccccc2)cc1` [Compound 15, (2S,4R)-4-fluoro-N-[(S)-phenyl[4-(propan-2-yl)phenyl]methyl]-1-[2-(1,3-thiazol-4-yl)acetyl]pyrrolidine-2-carboxamide], the IC50 is 48 nM in assay [1] and more than 100000 nM in assay [2].

As to `CC(C)c1ccc([C@@H](NC(=O)[C@@H]2C[C@@H](F)CN2C(=O)Cn2cncn2)c2ccccc2)cc1` [Compound 16, (2S,4R)-4-fluoro-N-[(S)-phenyl[4-(propan-2-yl)phenyl]methyl]-1-[2-(1H-1,2,4-triazol-1-yl)acetyl]pyrrolidine-2-carboxamide], the IC50 was 33 nM in assay [1] and more than 100000 nM in assay [2].

As to `CC(C)c1ccc([C@@H](NC(=O)[C@@H]2C[C@@H](F)CN2C(=O)Cc2c[nH]cn2)c2ccccc2)cc1` [Compound 18, (2S,4R)-4-fluoro-1-[2-(1H-imidazol-4-yl)acetyl]-N-[(S)-phenyl[4-(propan-2-yl)phenyl]methyl]pyrrolidine-2-carboxamide], the IC50 is 45 nM in assay [1] and more than 100000 nM in assay [2].

Turning to `CC(C)c1ccc([C@@H](NC(=O)[C@@H]2C[C@@H](F)CN2C(=O)Cn2ccnc2)c2ccccc2)cc1` [Compound 23, (2S,4R)-4-fluoro-1-[2-(1H-imidazol-1-yl)acetyl]-N-[(S)-phenyl[4-(propan-2-yl)phenyl]methyl]pyrrolidine-2-carboxamide], the IC50 in assay [1] was 70 nM; in assay [2], more than 100000 nM.

For `CC(C)c1ccc([C@@H](NC(=O)[C@@H]2C[C@@H](F)CN2C(=O)C(C)n2cnnn2)c2ccccc2)cc1` (stereo partly drawn) [Compound 24, (2S,4R)-4-fluoro-N-[(S)-phenyl[4-(propan-2-yl)phenyl]methyl]-1-[2-(1H-1,2,3,4-tetrazol-1-yl)propanoyl]pyrrolidine-2-carboxamide], the IC50 was 50 nM in assay [1] and more than 100000 nM in assay [2].

`CC(C)c1ccc([C@@H](NC(=O)[C@@H]2C[C@@H](F)CN2C(=O)C2(C)COC2)c2ccccc2)cc1` [Compound 25, (2S,4R)-4-fluoro-1-(3-methyloxetane-3-carbonyl)-N-[(S)-phenyl[4-(propan-2-yl)phenyl]methyl]pyrrolidine-2-carboxamide]: the IC50 in assay [1] was 235 nM; in assay [2] it was more than 100000 nM.

With `CC(C)c1ccc([C@@H](NC(=O)[C@@H]2C[C@@H](F)CN2C(=O)Cc2cnccn2)c2ccccc2)cc1` [Compound 26, (2S,4R)-4-fluoro-N-[(S)-phenyl[4-(propan-2-yl)phenyl]methyl]-1-[2-(pyrazin-2-yl)acetyl]pyrrolidine-2-carboxamide], the values for the IC50 in assay [1] and in assay [2] were 36 nM and more than 100000 nM, respectively.

On to `CC(C)c1ccc([C@@H](NC(=O)[C@@H]2C[C@@H](F)CN2C(=O)Cc2cncnc2)c2ccccc2)cc1` [Compound 27, (2S,4R)-4-fluoro-N-[(S)-phenyl[4-(propan-2-yl)phenyl]methyl]-1-[2-(pyrimidin-5-yl)acetyl]pyrrolidine-2-carboxamide], for which the IC50 in assay [1] was 23 nM; in assay [2], more than 100000 nM.

Turning to `Cc1nc(CC(=O)N2C[C@H](F)C[C@H]2C(=O)N[C@@H](c2ccccc2)c2ccc(C(C)C)cc2)no1` [Compound 29, (2S,4R)-4-fluoro-1-[2-(5-methyl-1,2,4-oxadiazol-3-yl)acetyl]-N-[(S)-phenyl[4-(propan-2-yl)phenyl]methyl]pyrrolidine-2-carboxamide], the IC50 is 70 nM in assay [1] and more than 100000 nM in assay [2].

Turning to `Cc1noc(CC(=O)N2C[C@H](F)C[C@H]2C(=O)N[C@@H](c2ccccc2)c2ccc(C(C)C)cc2)n1` [Compound 31, (2S,4R)-4-fluoro-1-[2-(3-methyl-1,2,4-oxadiazol-5-yl)acetyl]-N-[(S)-phenyl[4-(propan-2-yl)phenyl]methyl]pyrrolidine-2-carboxamide], the IC50 is 48 nM in assay [1] and more than 100000 nM in assay [2].

Values taken from patent US11814367B2, “Inhibitors of glycogen synthase 1 (GYS1) and methods of use thereof” (Maze Therapeutics, Inc., priority 2021, dated 2023).
